In patent publication US20230248723A1, “PYRROLO[2,3-B]PYRAZINE COMPOUNDS AS CCCDNA INHIBITORS FOR THE TREATMENT OF HEPATITIS B VIRUS (HBV) INFECTION” (Hoffmann-La Roche Inc., priority 2017, published 2023):
Where two headings read alike, the source gives them in different places.

How the values were obtained:
HBsAg = experiment: HBsAg, HBV-infected HepaRG; assay type: cell-based; conditions: Hepatitis B virus
[1] = test system: albumin (secreted, cellular toxicity marker); experiment: Albumin (in vitro tox), HepaRG; assay type: cell-based; conditions: human
Description: Following 4 day of maturation with 1 μM MB-1, HLC were incubated with HBV (purified from CHB individuals) at multiplicity of infection (MOI) 10-40 without PEG for 24 hr; virus inoculum was removed the following day. HBV infection in PHH was performed at MOI 40+4% PEG. Compound treatment in HLC and PHH was started at day 3 post infection. Compound (in powder) was dissolved in DMSO; the final concentration of DMSO added to cells is 1%. Fresh compound was replenished every 2 day until cells were harvested at day 10 (PHH), or day 14 (HLC). Compound effect on HBV and cellular toxicity was measured by multiplex assay (HBsAg, HBeAg, albumin), branched DNA (pgRNA), or digital PCR (cccDNA) and depicted as % of inhibition compared to DMSO control. Graphs were prepared using Spotfire software.
A custom, Luminex-based multiplex assay that simultaneously measured HBeAg, albumin, and HBsAg was developed by Radix BioSolutions (Georgetown, Tex.). This is a sandwich immunoassay; each capture antibody was coupled with xMAP™ Luminex magnetic beads. […] Samples were read on FlexMAP 3D (Luminex) and analyzed by Genedata software.
Most of HBV in vitro studies, including evaluation of compound antiviral activity, are performed in hepatoma cell lines (HepaRG or HepG2-NTCP) infected with cell culture-derived HBV (e.g. HepG2.2.15-derived virus, GT D). […] To address the first question, PHH (in 384-well plate) were infected with four clinical HBV isolates (GT A-D, at MOI 40). […] Most HBV in vitro studies are performed in hepatoma cell lines (e.g. HepaRG or HepG2 cell lines) utilizing HepG2-derived HBV as the virus inoculum.

liver-enriched genes = experiment: HLC maturation screening (microfluidic RT-qPCR of liver-enriched genes); assay type: cell-based, human; conditions: 96 liver-enriched genes
Description: FIG. 6: Effect of MB-1 on the expression of 96 liver-enriched genes in HLC. HLC seeded on collagen I-coated 6-well plates were treated with MB-1 (1, 5, or 10 μM) in 1% DMSO, or 1% DMSO (each in triplicate) for 4 days. Cells were harvested and expression of 96 liver-enriched genes was analyzed by microfluidic RT-qPCR (Fluidigm).
HLC are seeded on collagen 1-coated 96-well plates in 100 μl medium D containing Matrigel 0.25 mg/ml. The next day (day 1), compound library was added to cells at a final concentration 4 μM in 1% DMSO. Fresh medium and compound was replenished 2 days later (day 3). At day 4, cells were harvested using Cells-to-Ct lysis kit (Ambion/Thermo Fisher), total RNAs were reverse-transcribed, and the resulting cDNA products were loaded into the microfluidic 96.96 Dynamic Array™ IFC and assayed against 32 liver-enriched genes on Biomark HD system (Fluidigm). The relative gene expression was calculated from delta Ct values using house-keeping gene (PPIA) in DMSO control as reference; delta Ct values were then converted to fold-change values. Compounds that increased liver-enriched gene expression in HLC ≥3-fold compared to DMSO control were further tested in dose-response (1, 5, 10, and 50 μM). The secondary screen was performed as above using 96-liver enriched genes. The top candidate (MB-1) was used for all experiments utilizing HLC. […]

[2] = test system: iPS-derived hepatocyte-like cells (HLC); experiment: HBV infection of MB-1-treated HLC (HBsAg released into culture medium); assay type: cell-based, human

Compound: O=C(NC(CO)CO)c1c[nH]c2ncc(C3CC3)nc12 [compound 7]
- IC50 (HBsAg; read-out: HBsAg IC50 (μM) Median, HepaRG, HepG2.2.15-derived HBV GT D, MOI 40): 9.01 µM
- IC50 (HBsAg; read-out: HBsAg IC50 (μM) Median, HepaRG, HepG2.2.15-derived HBV GT D, MOI 125): 10.3 µM
- IC50 (HBsAg; read-out: HBsAg IC50 (μM) Median, HepaRG, patient-derived HBV GT D, MOI 40): 0.67 µM
- IC50 (HBsAg; read-out: HBsAg IC50 (μM) Median, HepaRG, patient-derived HBV GT D, MOI 125): 0.88 µM
- IC50 ([1]; HepG2.2.15-derived HBV GT D, MOI 40, read-out: In vitro tox albumin IC50 (μM) Median): 24.9 µM
- IC50 ([1]; HepG2.2.15-derived HBV GT D, MOI 125, read-out: In vitro tox albumin IC50 (μM) Median): 26.6 µM
- IC50 ([1]; HepaRG cells infected with HBV, patient-derived HBV GT D, MOI 40, read-out: In vitro tox albumin IC50 (μM) Median): 23.4 µM
- IC50 ([1]; HepaRG cells infected with HBV, patient-derived HBV GT D, MOI 125, read-out: In vitro tox albumin IC50 (μM) Median): 25.7 µM

Compound: O=C(NCc1cccc(F)c1)c1cccc2[nH]c(-c3c(NC[C@@H](O)c4ccccc4)cc[nH]c3=O)nc12 [MB-1]
- concentration at which mRNA expression of liver-enriched genes is enhanced (liver-enriched genes): 55 µM
- peak of HBsAg ([2]; HLC treated with MB-1 1 μM for 4 days, patient-derived HBV MOI 10, day 11 pi): ~16 ng/mL
- HBsAg ([2]; HLC with MB-1, HepG2.2.15-derived HBV, MOI 10, day 1 pi): 0.05 ± 0.01 ng/mL
- HBsAg ([2]; HLC with MB-1, HepG2.2.15-derived HBV, MOI 10, day 3 pi): 0.06 ± 0.01 ng/mL
- HBsAg ([2]; HLC with MB-1, HepG2.2.15-derived HBV, MOI 10, day 8 pi): 0.08 ± 0.01 ng/mL
- HBsAg ([2]; HLC with MB-1, HepG2.2.15-derived HBV, MOI 10, day 11 pi): 0.10 ± 0.01 ng/mL
- HBsAg ([2]; HLC with MB-1, HepG2.2.15-derived HBV, MOI 10, day 14 pi): 0.09 ± 0.01 ng/mL
- HBsAg ([2]; HLC with MB-1, HepG2.2.15-derived HBV, MOI 100, day 1 pi): 414.13 ± 1.68 ng/mL
- HBsAg ([2]; HLC with MB-1, HepG2.2.15-derived HBV, MOI 100, day 3 pi): 8.12 ± 2.21 ng/mL
- HBsAg ([2]; HLC with MB-1, HepG2.2.15-derived HBV, MOI 100, day 8 pi): 0.36 ± 0.11 ng/mL
- HBsAg ([2]; HLC with MB-1, HepG2.2.15-derived HBV, MOI 100, day 11 pi): 0.73 ± 0.20 ng/mL
- HBsAg ([2]; HLC with MB-1, HepG2.2.15-derived HBV, MOI 100, day 14 pi): 0.43 ± 0.18 ng/mL
- HBsAg ([2]; HLC with MB-1, patient-derived HBV, MOI 10, day 1 pi): 0.34 ± 0.06 ng/mL
- HBsAg ([2]; HLC with MB-1, patient-derived HBV, MOI 10, day 3 pi): 0.93 ± 0.25 ng/mL
- HBsAg ([2]; HLC with MB-1, patient-derived HBV, MOI 10, day 8 pi): 5.87 ± 1.34 ng/mL
- HBsAg ([2]; HLC with MB-1, patient-derived HBV, MOI 10, day 11 pi): 14.31 ± 2.02 ng/mL
- HBsAg ([2]; HLC with MB-1, patient-derived HBV, MOI 10, day 14 pi): 10.39 ± 1.46 ng/mL
